Laboratory results as given in publication PMC7018972, “Novel and selective inactivators of Triosephosphate isomerase with anti-trematode activity” (Scientific Reports, 2020).

What was measured:
FhTIM = FhTIM (Fasciola hepatica, UniProt S4UI50); experiment: Microscale thermophoresis (MST) binding to FhTIM
Method: MST experiments were performed according to the NanoTemper technologies protocol in a Monolith NT.115 (red/blue) instrument (NanoTemper Technologies, München, Germany[36]). With this technique, the diffusion behavior of a labeled protein is measured when an infrared light excites the movement of the protein in capillaries. This behavior is the combination of two effects: the fast, local environment-dependent responses of the fluorophore to the temperature jump and the slower diffusive thermophoresis fluorescence changes. It will be modified when the protein is complexed with increasing amounts of unlabeled partners, leading to titration curves that can be fit for Kd estimation. In practice, FhTIM was labeled with the Monolith His-Tag Labeling Kit RED-tris-NTA (NanoTemper Technologies, München, Germany), as described by the manufacturer. The experiments were performed using 20% and 40% MST power and between 20–80% LED power at 24 °C. The MST traces were recorded using the standard parameters: 5 s MST power off, 30 s MST power on, and 5 s MST power off. The compounds were used at high concentrations (around 5 mM) in the bindings check assay with DMSO at 5% v/v. If the binding check was positive, then the affinity determination was performed with the same experimental settings, with serial 2x dilutions of the compound of interest.

human (HsTIM) = biological target: T1, human (HsTIM) (Homo sapiens, UniProt P60174); experiment: Selectivity assay, inhibition of HsTIM; format: biochemical; details: read-out: inhibition against HsTIM
T1 construct: made in house; host or cells: Escherichia coli
Method: (§1) Expression and purification of proteins: FhTIM, RabbitTIM and HsTIM were expressed in Escherichia coli and purified as described in the literature[31],[37]. After purification, the enzyme, dissolved in 100 mM triethanolamine, 10 mM EDTA and 1 mM dithiothreitol (pH 8), was precipitated with ammonium sulfate (75% saturation) and stored at 4 °C. Before use, extensive dialysis against 100 mM triethanolamine/10 mM EDTA (pH 7.4) was performed. Protein concentration was determined by absorbance at 280 nm for FhTIM (ε = 33,460 M^−1cm^−1) and for RabbitTIM and HsTIM (ε = 33,460 M^−1cm^−1). Enzymatic activity was determined following the conversion of glyceraldehydes-3-phosphate into dihydroxyacetone phosphate in a coupled enzyme assay. The decrease in absorbance at 340 nm was followed in a multiplate reader VarioskanTM Flash Multimode Reader (Thermo ScientificTM, Waltham, MA, USA) at 38 °C. The reaction mixture (1 mL, pH 7.4) contained 100 mM triethanolamine, 10 mM EDTA, 0.2 mM NADH, 1 mM glyceraldehydes-3-phosphate and 0.9 units of α-glycerol phosphate dehydrogenase. The reaction was initiated by the addition of 5 ng/mL of the TIM of interest. For the inhibition studies, TIM was incubated at a concentration of 5 mg/mL in a buffer containing 100 mM triethanolamine, 10 mM EDTA, pH 7.4 and 10% of DMSO at 37 °C for 1 h. The mixture also contained the compounds, dissolved in DMSO, at the indicated concentrations. After 1 h, 10 µL were withdrawn and added to a final volume of 100 µL of the reaction mixture for the activity assay. The inhibition assay was performed in a 96-well microplate. None of the molecules tested here affected the activity of α-glycerol phosphate dehydrogenase, the enzyme used in the coupled assay. The IC50 value was taken as the concentration of drug needed to reduce the enzymatic activity to 50% by analysis using OriginLab8.5® sigmoidal regression (% of enzymatic activity vs. the logarithm of the compound concentration). The experiments were performed in triplicate in two independent experiments.

rabbit TIM = biological target: T2, rabbit TIM (Oryctolagus cuniculus, UniProt P00939); experiment: Selectivity assay, inhibition of rabbit TIM; format: biochemical; details: read-out: inhibition against rabbit TIM
T2 construct: made in house; host or cells: Escherichia coli
Method: as §1

[1] = tested on: F. hepatica infected mice; experiment: Mouse infection with F. hepatica; format: in vivo, BALB/c mice; details: for protection of mice from F. hepatica infection (clinical signs, Clinic Score): one dose 100 mg/kg orogastric, 1 week post-infection, read at 3 wpi; for transaminase profile at the end of the experiment: one dose 100 mg/kg, infected mice
Method: Six- to eight-week-old female BALB/c mice were obtained from DILAVE Laboratories[57] (Uruguay). Animals were kept in the animal house (URBE, Facultad de Medicina, UdelaR, Uruguay) with water and food supplied ad libitum. Mouse handling and experiments were carried out in accordance with strict guidelines from the National Committee on Animal Research (CNEA, Uruguay). All procedures involving animals were approved by the Universidad de la República’s Committee on Animal Research (CHEA Protocol Number: 070153-000180-16). BALB/c mice were orally infected with 10 F. hepatica metacercariae per animal. After 1 week post-infection (wpi), mice were intragastrically inoculated with compound 187 (100 mg/kg) or TCZ (100 mg/kg). At 3 wpi mice were bled and sacrificed. Peritoneal exudate cells, spleens, and livers were removed and analyzed. In order to evaluate the severity of the infection, a disease severity score was developed (Table 3S Supporting Information)[57], which was applied in blinded experiments. Alanine aminotransferase (ALT) activity in sera was determined using a commercial kit (Spinreact, Spain) according to the manufacturers’ instructions. PECs from infected and non-infected mice were washed twice with PBS containing 2% FBS and 0.1% sodium azide.

[2] = tested on: murine macrophages and human peripheral blood mononuclear cells; set-up: method as in PMID 22536349; details: at 100 µM; cited from earlier work
[3] = tested on: Echinococcus granulosus protoscolex; set-up: method as in PMID 22536349; details: 48 h, fixed dose of 20 µM; cited from earlier work

FhTIM, sequence (S4UI50 entry or part of it): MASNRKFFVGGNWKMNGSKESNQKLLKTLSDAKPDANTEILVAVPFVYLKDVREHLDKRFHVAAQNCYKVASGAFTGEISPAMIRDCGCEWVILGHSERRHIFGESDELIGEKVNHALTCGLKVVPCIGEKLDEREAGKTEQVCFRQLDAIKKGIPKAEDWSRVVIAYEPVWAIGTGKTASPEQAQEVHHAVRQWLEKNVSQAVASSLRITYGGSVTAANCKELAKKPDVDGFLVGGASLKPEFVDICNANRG
T2 sequence (P00939 whole entry): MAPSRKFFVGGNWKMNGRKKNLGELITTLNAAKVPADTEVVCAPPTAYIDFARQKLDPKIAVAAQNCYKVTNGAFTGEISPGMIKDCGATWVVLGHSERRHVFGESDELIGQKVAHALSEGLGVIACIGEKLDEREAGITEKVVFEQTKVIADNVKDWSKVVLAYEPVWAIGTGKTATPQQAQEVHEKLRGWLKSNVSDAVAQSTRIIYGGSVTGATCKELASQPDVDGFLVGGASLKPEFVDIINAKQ
T1 sequence (P60174 whole entry): as the sequence (P00939 whole entry) above, with K20Q, N21S, T27G, S119A counted along it

SMILES	Kd (FhTIM; 24 °C) [µM]	Kd (FhTIM; abstract) [µM]	inhibition at 100 µM (human (HsTIM)) [%]	inhibition at 100 µM (rabbit TIM) [%]	protection of mice from F. hepatica infection (clinical signs, Clinic Score) [1]	transaminase profile at the end of the experiment [1]	toxicity in words [2]	effect on Echinococcus granulosus protoscolex in words [3]
Cc1ccc(-c2nsc(S(=O)(=O)c3ccc(C)cc3)n2)cc1 [Compound 187]	0.07 ± 0.01	0.066	< 20	< 20	protected mice from the infection	according to a healthy liver	non-toxic	showed effect
CSc1nc2cc(Cl)c(Oc3cccc(Cl)c3Cl)cc2[nH]1 [Compound 1278, triclabendazole, reference compound]	1000		< 20	< 20	protected mice from the infection	according to a healthy liver		
